# Results reported in patent US6667312B2, “Thioether substituted imidazoquinolines” (3M Innovative Properties Company, priority 2000, dated 2003).
# Key:
# [1] = system: tumor necrosis factor (α); test: Cytokine Induction in Human Cells: tumor necrosis factor; assay type: cell-based; parameters: key to Lowest Effective Concentration (μM) Tumor Necrosis Factor: A “*” indicates that no induction was seen at any of the tested concentrations; conditions: human PBMC, 18 to 24 hours, tested 30-0.014 μM, TNF by ELISA or IGEN assay; for minimal effective concentration: read-out: Lowest Effective Concentration (μM) Tumor Necrosis Factor
# Excerpt: (§1) An in vitro human blood cell system is used to assess cytokine induction. Activity is based on the measurement of interferon and tumor necrosis factor (α) (IFN and TNF, respectively) secreted into culture media as described by Testerman et. al. In “Cytokine Induction by the Immunomodulators Imiquimod and S-27609”, Journal of Leukocyte Biology, 58, 365-372 (September, 1995).
# (§2) Whole blood from healthy human donors is collected by venipuncture into EDTA vacutainer tubes. Peripheral blood mononuclear cells (PBMC) are separated from whole blood by density gradient centrifugation using Histopaque®-1077. Blood is diluted 1:1 with Dulbecco's Phosphate Buffered Saline (DPBS) or Hank's Balanced Salts Solution (HBSS). The PBMC layer is collected and washed twice with DPBS or HBSS and resuspended at 4×10^6 cells/mL in RPMI complete. The PBMC suspension is added to 48 well flat bottom sterile tissue culture plates (Costar, Cambridge, Mass. or Becton Dickinson Labware, Lincoln Park, N.J.) containing an equal volume of RPMI complete media containing test compound.
# (§3) The compounds are solubilized in dimethyl sulfoxide (DMSO). The DMSO concentration should not exceed a final concentration of 1% for addition to the culture wells. The compounds are generally tested at concentrations ranging from 30-0.014 μM.
# (§4) The solution of test compound is added at 60 μM to the first well containing RPMI complete and serial 3 fold dilutions are made in the wells. The PBMC suspension is then added to the wells in an equal volume, bringing the test compound concentrations to the desired range (30-0.014 μM). The final concentration of PBMC suspension is 2×10^6 cells/mL. The plates are covered with sterile plastic lids, mixed gently and then incubated for 18 to 24 hours at 37° C. in a 5% carbon dioxide atmosphere.
# (§5) Following incubation the plates are centrifuged for 10 minutes at 1000 rpm (˜200× g) at 4° C. The cell-free culture supernatant is removed with a sterile polypropylene pipet and transferred to sterile polypropylene tubes. Samples are maintained at −30 to −70° C. until analysis. The samples are analyzed for interferon (α) by ELISA and for tumor necrosis factor (α) by ELISA or IGEN Assay
# Tumor necrosis factor (α) (TNF) concentration is determined using ELISA kits available from Biosource International, Camarillo, Calif. Alternately, the TNF concentration can be determined by Origen® M-Series Immunoassay and read on an IGEN M-8 analyzer from IGEN International, Gaithersburg, Md. The immunoassay uses a human TNF capture and detection antibody pair from Biosource International, Camarillo, Calif. Results are expressed in pg/mL.
# (§6) The table below lists the lowest concentration found to induce interferon and the lowest concentration found to induce tumor necrosis factor for each compound.
# interferon (α) = test: Cytokine Induction in Human Cells: interferon; assay type: cell-based; conditions: human PBMC, 18 to 24 hours, tested 30-0.014 μM, interferon (α) by ELISA; read-out: Lowest Effective Concentration (μM) Interferon
# Excerpt: as §1, §2, §3, §4, §5
# Interferon (α) concentration is determined by ELISA using a Human Multi-Species kit from PBL Biomedical Laboratories, New Brunswick, N.J. Results are expressed in pg/mL.
# as §6
SMILES,melting point [°C],minimal effective concentration [1] [µM],minimal effective concentration (interferon (α)) [µM],Lowest Effective Concentration (μM) Tumor Necrosis Factor [1]
"CCCCc1nc2c(N)nc3ccccc3c2n1CCCCC[S+](C)[O-] (stereo not drawn) [Example 18, 2-butyl-1-[5-(methylsulfinyl)pentyl]-1H-imidazo[4,5-c]quinolin-4-amine]",119 to 121,0.12,0.01,–
"CCCCc1nc2c(N)nc3ccccc3c2n1CCCS(C)(=O)=O [Example 19, 2-butyl-1-[3-(methylsulfonyl)propyl]-1H-imidazo[4,5-c]quinolin-4-amine]",233 to 236,0.37,0.04,–
"CCCCc1nc2c(N)nc3ccccc3c2n1CCCS(=O)(=O)c1ccccc1 [Example 20, 2-butyl-1-[3-(phenylsulfonyl)propyl]-1H-imidazo[4,5-c]quinolin-4-amine]",224 to 227,0.37,0.04,–
"CCCc1nc2c(N)nc3ccccc3c2n1CCCCCS(C)(=O)=O [Example 21, 1-[5-(methylsulfonyl)pentyl]-2-propyl-1H-imidazo[4,5-c]quinolin-4-amine]",179 to 181,0.37,0.12,–
"CSCCCn1c(C)nc2c(N)nc3ccccc3c21 [Example 22, 2-methyl-1-[3-(methylthio)propyl]-1H-imidazo[4,5-c]quinolin-4-amine]",199 to 202,1.11,0.37,–
"Cc1nc2c(N)nc3ccccc3c2n1CCCS(C)(=O)=O [Example 23, 2-methyl-1-[3-(methylsulfonyl)propyl]-1H-imidazo[4,5-c]quinolin-4-amine]",225 to 228,10,3.33,–
"CCc1nc2c(N)nc3ccccc3c2n1CCCSC [Example 24, 2-ethyl-1-[3-(methylthio)propyl]-1H-imidazo[4,5-c]quinolin-4-amine]",210 to 212,0.37,0.12,–
"CCc1nc2c(N)nc3ccccc3c2n1CCCS(C)(=O)=O [Example 25, 2-ethyl-1-[3-(methylsulfonyl)propyl]-1H-imidazo[4,5-c]quinolin-4-amine]",> 250,3.33,0.37,–
"CSCCCCn1c(C)nc2c(N)nc3ccccc3c21 [Example 26, 2-methyl-1-[4-(methylthio)butyl]-1H-imidazo[4,5-c]quinolin-4-amine]",190 to 193,0.37,0.04,–
"Cc1nc2c(N)nc3ccccc3c2n1CCCC[S+](C)[O-] (stereo not drawn) [Example 27, 2-methyl-1-[4-(methylsulfinyl)butyl]-1H-imidazo[4,5-c]quinolin-4-amine]",184 to 187,10,3.33,–
"CCc1nc2c(N)nc3ccccc3c2n1CCCCSC [Example 28, 2-ethyl-1-[4-(methylthio)butyl]-1H-imidazo[4,5-c]quinolin-4-amine]",183 to 186,0.37,0.01,–
"CCc1nc2c(N)nc3ccccc3c2n1CCCCS(C)(=O)=O [Example 29, 2-ethyl-1-[4-(methylsulfonyl)butyl]-1H-imidazo[4,5-c]quinolin-4-amine]",182 to 185,3.33,0.12,–
"CCCCc1nc2c(N)nc3ccccc3c2n1CCCC[S+](C)[O-] (stereo not drawn) [Example 31, 2-butyl-1-[4-(methylsulfinyl)butyl]-1H-imidazo[4,5-c]quinolin-4-amine]",126 to 128,0.12,0.04,–
"CSCCn1c(C)nc2c(N)nc3ccccc3c21 [Example 32, 2-methyl-1-[2-(methylthio)ethyl]-1H-imidazo[4,5-c]quinolin-4-amine]",193 to 195,0.12,0.12,–
"Cc1nc2c(N)nc3ccccc3c2n1CCS(C)(=O)=O [Example 33, 2-methyl-1-[2-(methylsulfonyl)ethyl]-1H-imidazo[4,5-c]quinolin-4-amine]",242 to 245,10,3.33,–
"Cc1nc2c(N)nc3ccccc3c2n1CCCCS(C)(=O)=O [Example 34, 2-methyl-1-[4-(methylsulfonyl)butyl]-1H-imidazo[4,5-c]quinolin-4-amine]",206 to 209,3.33,0.37,–
"CCc1nc2c(N)nc3ccccc3c2n1CCS(C)(=O)=O [Example 35, 2-ethyl-1-[2-(methylsulfonyl)ethyl]-1H-imidazo[4,5-c]quinolin-4-amine]",222 to 225,3.33,1.11,–
"CCCc1nc2c(N)nc3ccccc3c2n1CCS(C)(=O)=O [Example 36, 1-[2-(methylsulfonyl)ethyl]-2-propyl-1H-imidazo[4,5-c]quinolin-4-amine]",212 to 214,1.11,1.11,–
"CCCCc1nc2c(N)nc3ccccc3c2n1CCCCSc1ccc(F)cc1F [Example 37, 2-butyl-1-{4-[(2,4-difluorophenyl)thio]butyl}-1H-imidazo[4,5-c]quinolin-4-amine]",122 to 126,1.11,0.37,–
"CCCCc1nc2c(N)nc3ccccc3c2n1CCCCS(=O)(=O)c1ccc(F)cc1F [Example 38, 2-butyl-1-{4-[(2,4-difluorophenyl)sulfonyl]butyl}-1H-imidazo[4,5-c]quinolin-4-amine]",190 to 193,1.11,0.37,–
"CCCCc1nc2c(N)nc3ccccc3c2n1CCS(C)(=O)=O [Example 67, 2-butyl-1-[2-(methylsulfonyl)ethyl]-1H-imidazo[4,5-c]quinolin-4-amine]",226 to 228,0.04,0.01,–
"Cc1nc2c(N)nc3ccccc3c2n1CCCCCCS(C)(=O)=O [Example 68, 2-methyl-1-[6-(methylsulfonyl)hexyl]-1H-imidazo[4,5-c]quinolin-4-amine]",202 to 206,0.12,0.014,–
"Nc1nc2ccccc2c2c1ncn2CCCCCS(=O)(=O)c1ccccc1 [Example 69, 1-[5-(phenylsulfonyl)pentyl]-1H-imidazo[4,5-c]quinolin-4-amine]",171 to 172,1.11,1.11,–
"COCCc1nc2c(N)nc3ccccc3c2n1CCCCCS(=O)(=O)c1ccccc1 [Example 70, 2-(2-methoxyethyl)-1-[5-(phenylsulfonyl)pentyl]-1H-imidazo[4,5-c]quinolin-4-amine]",172 to 175,0.01,0.01,–
"CS(=O)(=O)CCCCCn1c(C(F)(F)F)nc2c(N)nc3ccccc3c21 [Example 71, 1-[5-(methylsulfonyl)pentyl]-2-(trifluoromethyl)-1H-imidazo[4,5-c]quinolin-4-amine]",192 to 195,–,30,*
